Measured values from ChEMBL document CHEMBL3885861, “Open TG-GATES”.

Species: Rattus norvegicus
Assay: Open TG-GATES - Regimen: Daily Repeat
Assay type: toxicity, organism-based, Sprague-Dawley
Parameters: regimen Daily Repeat, gender Male, age 6 weeks
Settings: in vivo, po, 100 mg/kg, route gavage, dose level Low; for APTT / Bas / Eos / Fbg / Hb / Ht / Lym / MCH / MCHC / MCV / Mono / Neu / PT / Plat / RBC / Ret / WBC: tissue Blood; for KIDNEY_L / KIDNEY_R / KIDNEY_TOTAL: tissue Kidney; for LIVER: tissue Liver; for A/G / ALP / ALT / AST / BUN / CRE / Ca / Cl / DBIL / GLC / IP / K / LDH / Na / PL / RALB / TBIL / TC / TG / TP / gamma-GTP: tissue Plasma

SMILES: O=C(N[C@H](CO)[C@H](O)c1ccc([N+](=O)[O-])cc1)C(Cl)Cl [CHLORAMPHENICOL]
- TERMINAL_BW (72 h, time 3 day): 251 g
- APTT (72 h, time 3 day): 16.1 s
- Bas (72 h, time 3 day): 0%
- Eos (72 h, time 3 day): 1%
- Fbg (72 h, time 3 day): 273.2 mg/dL
- Hb (72 h, time 3 day): 13.3 g/dL
- Ht (72 h, time 3 day): 40.4%
- Lym (72 h, time 3 day): 79.4%
- MCH (72 h, time 3 day): 21.8 pg
- MCHC (72 h, time 3 day): 32.8%
- MCV (72 h, time 3 day): 66.6 fL
- Mono (72 h, time 3 day): 3.2%
- Neu (72 h, time 3 day): 16.2%
- PT (72 h, time 3 day): 14.7 s
- Plat (72 h, time 3 day): 116.8 x10_4/uL
- RBC (72 h, time 3 day): 607.2 x10_4/ul
- Ret (72 h, time 3 day): 5.4%
- WBC (72 h, time 3 day): 102.1 x10_2/uL
- KIDNEY_L (72 h, time 3 day): 1.1 g
- KIDNEY_R (72 h, time 3 day): 1 g
- KIDNEY_TOTAL (72 h, time 3 day): 2.1 g
- LIVER (72 h, time 3 day): 11.3 g
- A/G (72 h, time 3 day): 0.9
- ALP (72 h, time 3 day): 1563.4 IU/L
- ALT (72 h, time 3 day): 45 IU/L
- AST (72 h, time 3 day): 69.4 IU/L
- BUN (72 h, time 3 day): 15.6 mg/dL
- CRE (72 h, time 3 day): 0.2 mg/dL
- Ca (72 h, time 3 day): 11.1 mg/dL
- Cl (72 h, time 3 day): 104.6 meq/L
- DBIL (72 h, time 3 day): 0.02 mg/dL
- GLC (72 h, time 3 day): 178.4 mg/dL
- IP (72 h, time 3 day): 6.8 mg/dL
- K (72 h, time 3 day): 4.3 meq/L
- LDH (72 h, time 3 day): 95.6 IU/L
- Na (72 h, time 3 day): 141.2 meq/L
- PL (72 h, time 3 day): 146.8 mg/dL
- RALB (72 h, time 3 day): 2.5 g/dL
- TBIL (72 h, time 3 day): 0.054 mg/dL
- TC (72 h, time 3 day): 80 mg/dL
- TG (72 h, time 3 day): 97.6 mg/dL
- TP (72 h, time 3 day): 5.4 g/dL
- gamma-GTP (72 h, time 3 day): 0.8 IU/L
- TERMINAL_BW ([…], time 7 day): 287.8 g
- TERMINAL_BW ([…], time 14 day): 333.6 g
- TERMINAL_BW ([…], time 28 day): 409.6 g
- APTT ([…], time 7 day): 16.2 s
- Bas ([…], time 7 day): 0%
- Eos ([…], time 7 day): 0.8%
- Fbg ([…], time 7 day): 308.8 mg/dL
- Hb ([…], time 7 day): 14.2 g/dL
- Ht ([…], time 7 day): 44.4%
- Lym ([…], time 7 day): 78.2%
- MCH ([…], time 7 day): 21.1 pg
- MCHC ([…], time 7 day): 32.2%
- MCV ([…], time 7 day): 65.7 fL
- Mono ([…], time 7 day): 3%
- Neu ([…], time 7 day): 17.4%
- PT ([…], time 7 day): 14.4 s
- Plat ([…], time 7 day): 131.5 x10_4/uL
- RBC ([…], time 7 day): 675 x10_4/ul
- Ret ([…], time 7 day): 6%
- WBC ([…], time 7 day): 90.7 x10_2/uL
- APTT ([…], time 14 day): 14.7 s
- Bas ([…], time 14 day): 0%
- Eos ([…], time 14 day): 1.4%
- Fbg ([…], time 14 day): 297.8 mg/dL
- Hb ([…], time 14 day): 14.1 g/dL
- Ht ([…], time 14 day): 43.4%
- Lym ([…], time 14 day): 78%
- MCH ([…], time 14 day): 20.2 pg
- MCHC ([…], time 14 day): 32.5%
- MCV ([…], time 14 day): 62.1 fL
- Mono ([…], time 14 day): 2.4%
- Neu ([…], time 14 day): 18%
- PT ([…], time 14 day): 14.5 s
- Plat ([…], time 14 day): 121.6 x10_4/uL
- RBC ([…], time 14 day): 698.2 x10_4/ul
- Ret ([…], time 14 day): 3.8%
- WBC ([…], time 14 day): 96.2 x10_2/uL
- APTT ([…], time 28 day): 16.5 s
- Bas ([…], time 28 day): 0%
- Eos ([…], time 28 day): 1%
- Fbg ([…], time 28 day): 278 mg/dL
- Hb ([…], time 28 day): 14.9 g/dL
- Ht ([…], time 28 day): 43.7%
- Lym ([…], time 28 day): 81%
- MCH ([…], time 28 day): 19.5 pg
- MCHC ([…], time 28 day): 34.2%
- MCV ([…], time 28 day): 57 fL
- Mono ([…], time 28 day): 1.2%
- Neu ([…], time 28 day): 15.8%
- PT ([…], time 28 day): 14.8 s
- Plat ([…], time 28 day): 106 x10_4/uL
- RBC ([…], time 28 day): 767.4 x10_4/ul
- Ret ([…], time 28 day): 2.3%
- WBC ([…], time 28 day): 79.5 x10_2/uL
- KIDNEY_L ([…], time 7 day): 1.2 g
- KIDNEY_R ([…], time 7 day): 1.2 g
- KIDNEY_TOTAL ([…], time 7 day): 2.4 g
- KIDNEY_L ([…], time 14 day): 1.3 g
- KIDNEY_R ([…], time 14 day): 1.3 g
- KIDNEY_TOTAL ([…], time 14 day): 2.6 g
- KIDNEY_L ([…], time 28 day): 1.6 g
- KIDNEY_R ([…], time 28 day): 1.5 g
- KIDNEY_TOTAL ([…], time 28 day): 3.1 g
- LIVER ([…], time 7 day): 12.9 g
- LIVER ([…], time 14 day): 14.9 g
- LIVER ([…], time 28 day): 16.8 g
- A/G ([…], time 7 day): 0.8
- ALP ([…], time 7 day): 1500.2 IU/L
- ALT ([…], time 7 day): 49 IU/L
- AST ([…], time 7 day): 71.2 IU/L
- BUN ([…], time 7 day): 13.6 mg/dL
- CRE ([…], time 7 day): 0.2 mg/dL
- Ca ([…], time 7 day): 11.7 mg/dL
- Cl ([…], time 7 day): 106.2 meq/L
- DBIL ([…], time 7 day): 0.026 mg/dL
- GLC ([…], time 7 day): 189.6 mg/dL
- IP ([…], time 7 day): 8.3 mg/dL
- K ([…], time 7 day): 4.2 meq/L
- LDH ([…], time 7 day): 65.8 IU/L
- Na ([…], time 7 day): 144.2 meq/L
- PL ([…], time 7 day): 156.2 mg/dL
- RALB ([…], time 7 day): 2.7 g/dL
- TBIL ([…], time 7 day): 0.062 mg/dL
- TC ([…], time 7 day): 82.6 mg/dL
- TG ([…], time 7 day): 72.4 mg/dL
- TP ([…], time 7 day): 5.9 g/dL
- gamma-GTP ([…], time 7 day): 1.2 IU/L
- A/G ([…], time 14 day): 0.8
- ALP ([…], time 14 day): 1535.2 IU/L
- ALT ([…], time 14 day): 41.8 IU/L
- AST ([…], time 14 day): 67.4 IU/L
- BUN ([…], time 14 day): 16 mg/dL
- CRE ([…], time 14 day): 0.2 mg/dL
- Ca ([…], time 14 day): 11.2 mg/dL
- Cl ([…], time 14 day): 105 meq/L
- DBIL ([…], time 14 day): 0.022 mg/dL
- GLC ([…], time 14 day): 191 mg/dL
- IP ([…], time 14 day): 6.5 mg/dL
- K ([…], time 14 day): 3.8 meq/L
- LDH ([…], time 14 day): 54.8 IU/L
- Na ([…], time 14 day): 142.8 meq/L
- PL ([…], time 14 day): 157.4 mg/dL
- RALB ([…], time 14 day): 2.6 g/dL
- TBIL ([…], time 14 day): 0.05 mg/dL
- TC ([…], time 14 day): 77.8 mg/dL
- TG ([…], time 14 day): 133 mg/dL
- TP ([…], time 14 day): 5.8 g/dL
- gamma-GTP ([…], time 14 day): 1 IU/L
- A/G ([…], time 28 day): 0.8
- ALP ([…], time 28 day): 1164.4 IU/L
- ALT ([…], time 28 day): 39.2 IU/L
- AST ([…], time 28 day): 61.4 IU/L
- BUN ([…], time 28 day): 16.4 mg/dL
- CRE ([…], time 28 day): 0.2 mg/dL
- Ca ([…], time 28 day): 10.9 mg/dL
- Cl ([…], time 28 day): 104.4 meq/L
- DBIL ([…], time 28 day): 0.02 mg/dL
- GLC ([…], time 28 day): 171.2 mg/dL
- IP ([…], time 28 day): 6.1 mg/dL
- K ([…], time 28 day): 3.5 meq/L
- LDH ([…], time 28 day): 44.6 IU/L
- Na ([…], time 28 day): 144.2 meq/L
- PL ([…], time 28 day): 152.2 mg/dL
- RALB ([…], time 28 day): 2.7 g/dL
- TBIL ([…], time 28 day): 0.058 mg/dL
- TC ([…], time 28 day): 75.2 mg/dL
- TG ([…], time 28 day): 97.6 mg/dL
- TP ([…], time 28 day): 6.2 g/dL
- gamma-GTP ([…], time 28 day): 1 IU/L
